Measurements taken from article PMC7262777 (Journal of medicinal chemistry, 2020).

Columns and labels:
D3R [1] = target: T1, D3R (Homo sapiens, UniProt P35462); settings: 10 μM
D4R = target: T2, D4R (Homo sapiens, UniProt P21917); assay: DiscoverX gpcrMAX panel, agonist mode, D4R; settings: 10 μM
T2 sequence (P21917 1-419): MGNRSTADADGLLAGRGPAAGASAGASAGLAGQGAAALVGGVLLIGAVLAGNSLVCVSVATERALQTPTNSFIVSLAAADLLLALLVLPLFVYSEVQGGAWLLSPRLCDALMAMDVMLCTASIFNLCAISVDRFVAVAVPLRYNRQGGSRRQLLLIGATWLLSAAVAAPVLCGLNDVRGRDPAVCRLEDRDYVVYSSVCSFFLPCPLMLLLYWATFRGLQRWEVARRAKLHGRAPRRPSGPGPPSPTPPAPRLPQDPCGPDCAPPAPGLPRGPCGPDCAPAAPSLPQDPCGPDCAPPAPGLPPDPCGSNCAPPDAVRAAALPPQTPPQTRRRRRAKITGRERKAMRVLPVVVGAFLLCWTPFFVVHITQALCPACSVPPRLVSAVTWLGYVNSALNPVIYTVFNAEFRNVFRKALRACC

chemokine CXCR7 receptor = chemokine CXCR7 receptor (Homo sapiens, UniProt P25106); assay: DiscoverX gpcrMAX panel, agonist mode, CXCR7; settings: 10 μM
D2R = D2R (Homo sapiens, UniProt P14416); assay: β-arrestin recruitment DiscoverX PathHunter assay, agonist mode, D2R; type: cell-based
human D2RL = human D2RL (Homo sapiens, UniProt P14416); assay: [3H]-methylspiperone competition binding, D2R membranes
[2] = tested on: all other receptor subtypes (D1R, D2R, D4R, D5R); type: cell-based; settings: β-arrestin recruitment
human 5-HT2B = human 5-HT2B (Homo sapiens, UniProt P41595); assay: Inositol 1-phosphate; type: cell-based
pKa titration = type: physicochemical
HTR2A = HTR2A (Homo sapiens, UniProt P28223); assay: DiscoverX gpcrMAX panel, antagonist mode, HTR2A; type: cell-based; settings: 10 μM, percent inhibition of EC80 reference agonist
bacteria = assay: Ames reverse mutation assay
[3] = target: D2R (short and long isoforms) (Homo sapiens, UniProt P14416); assay: DiscoverX gpcrMAX panel, agonist mode, D2R; settings: 10 μM
ADRA2C = target: T3, ADRA2C (Homo sapiens, UniProt P18825); assay: DiscoverX gpcrMAX panel, antagonist mode, ADRA2C; settings: 10 μM, percent inhibition of EC80 reference agonist
T3 sequence (P18825 1-462): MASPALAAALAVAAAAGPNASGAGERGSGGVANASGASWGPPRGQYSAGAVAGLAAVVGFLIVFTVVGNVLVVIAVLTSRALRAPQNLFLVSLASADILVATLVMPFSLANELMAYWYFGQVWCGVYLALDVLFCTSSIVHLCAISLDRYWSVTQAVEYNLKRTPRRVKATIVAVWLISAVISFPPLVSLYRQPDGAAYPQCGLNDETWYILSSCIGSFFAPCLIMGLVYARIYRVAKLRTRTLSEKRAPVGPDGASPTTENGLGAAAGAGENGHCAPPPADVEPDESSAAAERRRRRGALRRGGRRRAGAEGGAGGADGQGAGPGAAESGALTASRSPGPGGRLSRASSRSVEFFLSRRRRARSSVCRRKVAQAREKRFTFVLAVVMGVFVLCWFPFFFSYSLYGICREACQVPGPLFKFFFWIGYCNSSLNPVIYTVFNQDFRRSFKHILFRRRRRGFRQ

[4] = tested on: D3R-expressing dopaminergic neurons derived from human iPSCs; assay: MTT cell viability, protection from 6-OHDA-induced cell death
168 known GPCRs = settings: 10 μM
[5] = target: alpha2B-adrenergic receptor (Homo sapiens, UniProt P18089); settings: 10 μM
D3R [6] = target: T1, D3R; assay: β-arrestin recruitment DiscoverX PathHunter assay, agonist mode, D3R; type: cell-based

T1 sequence (P35462 whole entry): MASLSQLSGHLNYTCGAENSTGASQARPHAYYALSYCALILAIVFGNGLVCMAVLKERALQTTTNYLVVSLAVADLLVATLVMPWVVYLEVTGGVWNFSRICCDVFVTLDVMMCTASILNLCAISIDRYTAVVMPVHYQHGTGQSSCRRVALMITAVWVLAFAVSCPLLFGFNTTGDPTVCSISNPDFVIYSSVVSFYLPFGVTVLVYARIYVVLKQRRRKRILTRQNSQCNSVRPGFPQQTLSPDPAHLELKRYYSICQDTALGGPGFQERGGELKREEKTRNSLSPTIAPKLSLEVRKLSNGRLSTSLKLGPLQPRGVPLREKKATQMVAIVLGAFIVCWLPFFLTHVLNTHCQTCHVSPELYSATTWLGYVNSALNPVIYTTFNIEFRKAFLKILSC
D2R (short and long isoforms), sequence (P14416 1-414 isoform P14416-2): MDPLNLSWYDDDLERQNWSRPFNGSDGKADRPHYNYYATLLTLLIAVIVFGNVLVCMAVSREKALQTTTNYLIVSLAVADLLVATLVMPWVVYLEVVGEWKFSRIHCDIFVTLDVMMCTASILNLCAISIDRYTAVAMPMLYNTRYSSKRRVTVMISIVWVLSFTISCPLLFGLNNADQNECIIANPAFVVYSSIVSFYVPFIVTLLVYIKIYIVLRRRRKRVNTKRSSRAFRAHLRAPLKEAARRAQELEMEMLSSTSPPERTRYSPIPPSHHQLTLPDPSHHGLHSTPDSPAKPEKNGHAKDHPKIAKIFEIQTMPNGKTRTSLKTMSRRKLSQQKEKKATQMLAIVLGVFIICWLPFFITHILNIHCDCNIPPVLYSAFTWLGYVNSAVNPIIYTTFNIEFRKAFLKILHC
D2R, sequence (P14416 whole entry): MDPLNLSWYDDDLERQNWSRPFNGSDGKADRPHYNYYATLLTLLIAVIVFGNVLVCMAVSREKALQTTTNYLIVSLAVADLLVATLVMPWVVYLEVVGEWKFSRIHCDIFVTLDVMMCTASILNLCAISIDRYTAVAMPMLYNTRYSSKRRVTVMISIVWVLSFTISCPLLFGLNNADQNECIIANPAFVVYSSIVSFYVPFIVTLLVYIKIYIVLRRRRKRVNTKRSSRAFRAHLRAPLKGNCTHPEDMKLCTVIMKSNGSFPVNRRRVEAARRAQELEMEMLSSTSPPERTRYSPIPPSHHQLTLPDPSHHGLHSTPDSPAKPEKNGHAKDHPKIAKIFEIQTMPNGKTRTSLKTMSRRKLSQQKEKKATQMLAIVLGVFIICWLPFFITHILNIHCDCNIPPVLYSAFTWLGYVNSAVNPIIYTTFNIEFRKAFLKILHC
human 5-HT2B, sequence (P41595 whole entry): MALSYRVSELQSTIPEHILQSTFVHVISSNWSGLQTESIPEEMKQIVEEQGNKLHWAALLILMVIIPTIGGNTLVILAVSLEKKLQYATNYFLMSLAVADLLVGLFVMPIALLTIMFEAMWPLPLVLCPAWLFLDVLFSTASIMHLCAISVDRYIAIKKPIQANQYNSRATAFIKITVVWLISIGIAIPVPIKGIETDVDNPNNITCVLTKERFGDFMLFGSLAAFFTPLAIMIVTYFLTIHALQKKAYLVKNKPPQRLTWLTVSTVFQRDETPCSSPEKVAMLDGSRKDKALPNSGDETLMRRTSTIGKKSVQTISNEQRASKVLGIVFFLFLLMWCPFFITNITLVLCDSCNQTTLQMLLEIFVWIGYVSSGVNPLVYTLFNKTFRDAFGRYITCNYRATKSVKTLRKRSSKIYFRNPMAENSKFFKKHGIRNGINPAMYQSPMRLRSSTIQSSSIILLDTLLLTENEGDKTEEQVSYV
human D2RL, sequence (P14416 whole entry): as the sequence (P14416 whole entry) above
HTR2A, sequence (P28223 whole entry): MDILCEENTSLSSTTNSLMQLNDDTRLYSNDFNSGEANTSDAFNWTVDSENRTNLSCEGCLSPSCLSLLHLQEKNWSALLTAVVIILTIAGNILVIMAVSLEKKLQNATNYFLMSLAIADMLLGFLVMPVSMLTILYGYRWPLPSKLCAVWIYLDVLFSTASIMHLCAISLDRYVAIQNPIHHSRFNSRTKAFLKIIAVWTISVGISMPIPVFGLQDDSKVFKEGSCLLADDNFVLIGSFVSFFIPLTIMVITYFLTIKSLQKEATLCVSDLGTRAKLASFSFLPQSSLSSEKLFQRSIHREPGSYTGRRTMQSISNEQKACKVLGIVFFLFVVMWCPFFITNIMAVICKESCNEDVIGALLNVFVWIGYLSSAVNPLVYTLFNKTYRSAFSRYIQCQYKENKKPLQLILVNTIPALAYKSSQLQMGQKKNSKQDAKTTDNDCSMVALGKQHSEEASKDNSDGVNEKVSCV
chemokine CXCR7 receptor, sequence (P25106 whole entry): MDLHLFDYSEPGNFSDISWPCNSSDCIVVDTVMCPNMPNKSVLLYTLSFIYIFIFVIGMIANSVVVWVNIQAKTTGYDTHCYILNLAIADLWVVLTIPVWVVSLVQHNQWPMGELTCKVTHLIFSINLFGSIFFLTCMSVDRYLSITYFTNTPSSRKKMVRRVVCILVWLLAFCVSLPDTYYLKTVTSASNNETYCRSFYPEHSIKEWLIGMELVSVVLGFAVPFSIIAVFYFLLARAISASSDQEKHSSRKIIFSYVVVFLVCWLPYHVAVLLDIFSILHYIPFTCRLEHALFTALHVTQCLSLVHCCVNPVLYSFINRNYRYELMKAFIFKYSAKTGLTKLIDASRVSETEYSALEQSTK
alpha2B-adrenergic receptor, sequence (P18089 whole entry): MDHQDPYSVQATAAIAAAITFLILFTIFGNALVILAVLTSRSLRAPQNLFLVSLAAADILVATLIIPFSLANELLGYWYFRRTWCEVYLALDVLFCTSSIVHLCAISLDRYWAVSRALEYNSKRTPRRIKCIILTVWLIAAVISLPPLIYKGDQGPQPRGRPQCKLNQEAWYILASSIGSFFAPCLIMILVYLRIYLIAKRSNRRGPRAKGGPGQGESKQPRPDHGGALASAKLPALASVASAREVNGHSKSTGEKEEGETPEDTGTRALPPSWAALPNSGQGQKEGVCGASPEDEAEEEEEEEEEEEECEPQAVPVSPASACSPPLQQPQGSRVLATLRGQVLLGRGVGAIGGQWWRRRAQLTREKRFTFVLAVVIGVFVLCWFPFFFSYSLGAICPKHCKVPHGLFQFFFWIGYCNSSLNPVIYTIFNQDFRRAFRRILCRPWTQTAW

CCCN(CC[C@]1(O)C[C@H](NC(=O)c2ccc3ccccc3c2)C1)[C@H]1CCc2nc(N)sc2C1 [CJ-1639]
agonist activity, D3R (gpcrMAX) (D3R [1]): full agonist | agonist activity, D4R (gpcrMAX) (D4R): partial agonist activities | agonist activity, CXCR7 (gpcrMAX) (chemokine CXCR7 receptor): partial agonist activities

COc1ccc(OCCN2CCN(C(=O)c3ccc(OC)cc3)CC2)cc1 [Compound 1, (4-(2-(4-Methoxyphenoxy)ethyl)piperazin-1-yl)(4-methoxyphenyl)methanone]
D2R agonist activity EC50 (D2R; β-arrestin recruitment (DiscoverX), agonist mode): No measurable agonist activity | IC50 for inhibiting [3H]-methylspiperone binding to the D2R (human D2RL): no measurable ability to displace binding

COc1ccc(OCCN2CCN(C(=O)c3cc4ccccc4[nH]3)CC2)cc1 [Compound 20, (1H-Indol-2-yl)(4-(2-(4-methoxyphenoxy)ethyl)piperazin-1-yl)methanone]
agonist efficacy at other dopamine receptor subtypes [2]: minimal agonist efficacy | 5-HT2B agonist activity (IP1 accumulation) (human 5-HT2B; 10 μM): no agonist activity | pKa (pKa titration): 8.62 | partial antagonist activity, HTR2A (HTR2A): 37% | AMES reverse mutation assay (bacteria): no toxicity was observed | agonist activity, D2R (gpcrMAX) [3]: small, but measurable agonist responses | partial antagonist activity, ADRA2C (ADRA2C): 36%

NCCc1cc(O)c(O)cc1O [Compound 6-OHDA, 6-hydroxydopamine]
reduction of cell viability ([4]; 30 μM, 24 hr, no drug (vehicle)): 62 ± 8%

CCCN[C@H]1CCc2nc(N)sc2C1 [Pramipexole, pramipexole]
antagonist activity at any of the GPCRs tested (168 known GPCRs): did not exhibit antagonist activity | agonist activity, D3R (gpcrMAX) (D3R [1]): full agonist activity | agonist activity, alpha2B-adrenergic receptor (gpcrMAX) [5]: partial agonist activity | agonist activity, D2R (gpcrMAX) [3]: full agonist activity | concentration giving significant reduction in 6-OHDA-induced cell death ([4]; 24 h pretreatment, 30 μM 6-OHDA 24 h, MTT): 500 nM

Cn1ccc2cc3c(cc21)CCN3C(=O)Nc1cccnc1 [SB206553, reference compound]
IC50 (human 5-HT2B): 0.013 µM

COc1ccc2[nH]c(C(=O)N3CCN(CCOc4cccnc4)CC3)cc2c1 [Compound 59, (5-Methoxy-1H-indol-2-yl)(4-(2-(pyridin-3-yloxy)ethyl)piperazin-1-yl)methanone]
D2R agonist activity Emax (D2R; percentage of the maximum dopamine response): 97 ± 2.8 % control

COc1ccc2cc(C(=O)N3CCN(CCOc4cccnc4)CC3)[nH]c2c1 [Compound 58, (6-Methoxy-1H-indol-2-yl)(4-(2-(pyridin-3-yloxy)ethyl)piperazin-1-yl)methanone]
D3R agonist activity EC50 (D3R [6]): single-digit nanomolar range
